The subject of assay [1] is T lymphocytes. Kind of assay: Bleomycin-induced CD8 T-lymphocyte apoptosis, treatment from the start of blood cell culture (at least 50 hours contact), flow cytometry. The class given is cell-based, human. Particulars: for T lymphocytes apoptosis rate, from the start of cell culture: same blood sample, 8 Gy irradiation control 28.2%. On the procedure: (§1) Blood samples were purchased from Etablissement Français du Sang (EFS) with the convention number 21PLER2016-0100 AV01. Blood samples were collected from healthy donors in 5 mL heparinized tubes without separation gel.
(§2) Blood cells were grown in RPMI-1640 with glutamax (Fisher scientific, France) supplemented with 20% fetal calf serum (FCS) (EuroBio, France). Cells were maintained at 37° C. with 5% CO2 during the experiments.
(§3) Bleomycin (EuroMedex) was solubilized in sterile MilliQ water at 50 mg/mL according to manufacturer instructions and stored at −80° C.
(§4) Samples were then centrifuged for 5 min at 300 g. The pellets were resuspended in phosphate-buffered saline (PBS) containing 10 μl of anti-human CD8-FITC antibody (Becton Dickinson, USA) and incubated for 20 minutes at room temperature. Then, red blood cells were lysed by addition of 4 ml of lysis buffer diluted 1:10 in water (Becton Dickinson, USA). After another 20 minutes incubation time at room temperature, samples were centrifuged for 5 min at 300 g and the pellets were washed with 3 ml of PBS. Pellets were suspended in 200 μl of PBS containing 25 μg/ml of propidium iodide (Sigma, France) and 5 μl of RNAse A at 10 mg/ml (Qiagen, France). The samples were analyzed by flow cytometry within the next hours, using the CytoFlex (Beckman Coulter, USA). […]
Two hundred microliters of blood were aliquoted into a 6-well plate containing 2 mL of RPMI-20% FCS-bleomycin, about 24 hours after blood collection. The cell culture media containing the different concentrations of bleomycin were made fresh just before starting the cell culture. After bleomycin incubation with blood cells for at least 50 hours (generally more than about 60 hours, in particular between 65 and 75 hours), samples were stained for flow cytometry analysis as described above.
(§5) Two treatment conditions were tested on the same blood sample: blood cells were treated by several bleomycin concentrations 24 hours after cell culture or from the start of cell culture. A control experiment was performed by irradiating blood samples at 8 Gy.
On the technique in general: Flow cytometry measures light scatter and fluorescence of single cells or particles in a stream.

In assay [2] the test system is T lymphocytes. Kind of assay: Bleomycin-induced CD8 T-lymphocyte apoptosis, treatment 24 hours after blood cell culture (less than 50 hours contact), flow cytometry. The assay is classed as cell-based, human. Particulars: for T lymphocytes apoptosis rate, 24 hours after cell culture: staining 48 hours after treatment, same blood sample, 8 Gy control 28.2%. On the procedure: as §1, §2, §3, §4
Two hundred microliters of blood were aliquoted into a 6-well plate containing 2 mL of RPMI-20% FCS, about 24 hours after blood collection. Bleomycin treatment, at the different concentrations, was performed 24 hours after blood cell culture by adding the Bleomycin directly into the wells. The staining for detecting apoptosis was performed as described above and 48 hours after the bleomycin treatment (thus, after less than 50 hours of contact of bleomycin with the cells). • Treatment during blood cell culture:
as §5

For Bleomycin, the “T lymphocytes apoptosis rate, from the start of cell culture” value in the assay with T lymphocytes [1] (bleomycin 50 μg/mL) worked out at 12.47%; in the assay on T lymphocytes [1] (bleomycin 100 μg/ml), 19.14%; in the assay with T lymphocytes [1] (bleomycin 200 μg/ml), 23.44%; with T lymphocytes [1] (bleomycin 300 μg/ml) it was 26.32%; in the assay with T lymphocytes [1] (bleomycin 400 μg/ml), 30.68%. The “Bleomycin concentration achieving the apoptosis rate obtained after 8 Gy irradiation” value in the assay with T lymphocytes [1] (treatment applied at the start of blood cell culture) was “lower than 300 μg/ml”. The “T lymphocytes apoptosis rate, 24 hours after cell culture” value is given as 3.98% with T lymphocytes [2] (bleomycin 50 μg/mL); 2.72% with T lymphocytes [2] (bleomycin 100 μg/ml); 10.13% with T lymphocytes [2] (bleomycin 200 μg/ml); 11.9% in the assay with T lymphocytes [2] (bleomycin 300 μg/ml); 16.78% with T lymphocytes [2] (bleomycin 400 μg/ml). In addition, the “Whether the apoptosis rate observed after 8 Gy irradiation is induced” value in the assay with T lymphocytes [2] (treatment 24 hours after blood cell culture, applied for less than 50 hours, 50 to 500 μg/mL) is given as “no bleomycin concentration, applied for less than 50 hours, induces the apoptosis rate observed after 8 Gy irradiation”.
